Experimental findings from patent publication US7273951B2, “Polyhydroxy phenols and their use in binding p-selectin” (Astellas Pharma Inc., priority 2003, dated 2007) are described below.

A value given as a limit tells only on which side of the number the result lay.

One may read the IC50 as the concentration needed to halve the response being measured.

Data set [1] addresses T1, human P-selectin (Homo sapiens, UniProt P16109).
T1 construct: purchased R&D Systems Europe Ltd., Abingdon, United Kingdom
Put plainly: Competition assay with biotin-PAA-Le^a-SO3H. The following applies: read-out: IC50, inhibition of biotin-PAA-Le^a-SO3 binding to human P-selectin. The method, then: (§1) Gallic acid (Acros, Geel, Belgium) was assayed for its ability to inhibit TM11-PO binding to human P-selectin. […] For competition studies, a 96 wells microtiter plate (high binding, flat bottom, Costar, Corning, U.S.A.) was coated overnight at 4° C. with 10 μg/ml goat anti-human IgG (Fc specific) (Sigma-Aldrich, Zwijndrecht, the Netherlands) in coating buffer (50 mM NaHCO3, pH 9.6). Subsequently, wells were washed with assay buffer and incubated for 1 hour at 37° C. with blocking buffer (3% BSA in assay buffer). After washing with assay buffer, the wells were incubated for 2 hours at 37° C. with the human P-selectin IgG-Fc chimera (R&D Systems Europe Ltd., Abingdon, United Kingdom) (0.3 μg/ml). Subsequently, wells were washed with assay buffer and incubated for 1 hour at 4° C. with the TM11-PO complex. The wells were washed six times with washing buffer (0.1% Tween 20 in assay buffer). […] (TMB)/hydrogen peroxide (H2O2) (Pierce, Rochford, U.S.A.) was added and wells were incubated at room temperature for 15 minutes. The reaction was halted by addition of 2 M H2SO4 and the absorbance was measured at 450 nm.
(§2) To be able to test gallic acid binding also to other members of the selectin family (i.e. E- and L-selectin), biotin-PAA-Le^a-SO3H (Synthesone, Munich, Germany) instead of TM11-PO was used as ligand in the competition assay. This polyacrylamide (PAA) based polymer with attached sulfo-Lewis A groups, is an established selectin ligand.
(§3) Experimentally, the same procedure was used as in example 7 however with the following differences. After washing with assay buffer, the wells were incubated for 2 hours at 37° C. with the human P-selectin IgG-Fc chimera, mouse P-selectin IgG-Fc chimera, human L-selectin IgG-Fc chimera and human E-selectin IgG-Fc chimera respectively (all from R&D Systems Europe Ltd., Abingdon, United Kingdom) (0.3 μg/ml). Subsequently the wells of the microtiter plate were incubated with biotin-PAA-Le^a-SO3H (0.33 μg/ml) for 2 hours at 37° C., instead of with the TM11-PO-complex.

For data set [2], the target named is T1, human P-selectin. Nature of the data set: Competition assay of gallic acid with TM11-PO. It is filed as binding. The method, then:
as §1

Another data set has as its target T2, human E-selectin (Homo sapiens, UniProt P16581).
T2 construct: purchased R&D Systems Europe Ltd., Abingdon, United Kingdom
Nature of the data set: Competition assay with biotin-PAA-Le^a-SO3H. It is filed as binding. The following applies: concentrations up to 1 mM; biotin-PAA-Le^a-SO3H ligand. The method, then: as §1, §2, §3

The next data set concerns the target T3, human L-selectin (Homo sapiens, UniProt P14151).
T3 construct: purchased R&D Systems Europe Ltd., Abingdon, United Kingdom
Nature of the data set: Competition assay with biotin-PAA-Le^a-SO3H. It counts as binding. The protocol: as §1, §2, §3

The next data set deals with T4, mouse P-selectin (Mus musculus, UniProt Q01102).
T4 construct: purchased R&D Systems Europe Ltd., Abingdon, United Kingdom
T4 sequence (Q01102 with tags, fused parts or gaps limits assumed): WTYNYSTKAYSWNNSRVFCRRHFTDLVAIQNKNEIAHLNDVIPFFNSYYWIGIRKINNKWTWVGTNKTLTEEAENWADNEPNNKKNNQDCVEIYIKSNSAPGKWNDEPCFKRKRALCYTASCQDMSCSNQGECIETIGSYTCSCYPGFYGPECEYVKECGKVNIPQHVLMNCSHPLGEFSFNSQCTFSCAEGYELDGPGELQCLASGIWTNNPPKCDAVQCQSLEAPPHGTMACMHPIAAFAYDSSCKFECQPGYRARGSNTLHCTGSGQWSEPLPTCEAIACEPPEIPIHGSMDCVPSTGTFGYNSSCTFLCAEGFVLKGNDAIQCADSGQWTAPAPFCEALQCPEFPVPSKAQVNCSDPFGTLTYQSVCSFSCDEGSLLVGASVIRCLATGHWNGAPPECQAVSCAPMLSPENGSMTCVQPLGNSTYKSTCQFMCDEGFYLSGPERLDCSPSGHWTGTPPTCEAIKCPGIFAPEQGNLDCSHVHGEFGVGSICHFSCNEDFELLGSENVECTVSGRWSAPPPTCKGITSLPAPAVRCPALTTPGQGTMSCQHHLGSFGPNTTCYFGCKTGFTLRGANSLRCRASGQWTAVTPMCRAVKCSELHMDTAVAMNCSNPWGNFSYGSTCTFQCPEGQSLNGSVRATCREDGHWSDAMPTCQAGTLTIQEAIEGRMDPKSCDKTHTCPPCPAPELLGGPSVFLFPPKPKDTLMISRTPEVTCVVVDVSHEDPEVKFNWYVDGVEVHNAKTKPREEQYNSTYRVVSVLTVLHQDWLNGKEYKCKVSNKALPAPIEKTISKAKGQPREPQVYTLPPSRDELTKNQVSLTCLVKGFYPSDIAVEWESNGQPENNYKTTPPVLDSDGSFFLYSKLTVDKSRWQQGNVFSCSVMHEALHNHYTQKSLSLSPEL
Put plainly: Competition assay with biotin-PAA-Le^a-SO3H. It counts as binding. The settings on record: biotin-PAA-Le^a-SO3H ligand. The protocol:
as §1, §2, §3

Data set [3] concerns HL60 cells / human P-selectin expressing Chinese hamster ovary cells (CHO-P). Nature of the data set: Dynamic interactions between HL60 cells and CHO-P monolayers in parallel-plate perfusion chamber. It counts as cell-based. The protocol: Chinese hamster ovary (CHO) cells stably transfected with human P-selectin (CHO—P) were kindly donated by Dr. Modderman (University of Amsterdam, Amsterdam, the Netherlands). Cells were grown in DMEM (BioWhittaker Europe, Verviers, Belgium) containing 10% foetal calf serum (FCS) (BioWitthaker), 5 mM L-glutamine, 20,000 units penicillin/streptomycin (BioWhittaker) and 5 mM non-essential amino acids (Gibco, Paisley, United Kingdom). Flasks with cells were incubated at 37° C. in 5% CO2 for 3 or 4 days until cells had grown nearly confluent.
HL60 cells were from ATCC and grown in RPMI 1640 medium (BioWhittaker) with 10% FCS, 5 mM L-glutamine and 20,000 units penicillin/streptomycin.
Dynamic interactions between […], displaying a high expression of PSGL-1, the natural P-selectin ligand, and human P-selectin expressing Chinese hamster ovary cell (CHO—P cells) monolayers grown onto glass coverslips coated with 30 μg/ml collagen S (type I) (Roche Diagnosis, Brussels, Belgium) were analysed in a parallel-plate perfusion chamber with a method adapted from G. Theilmeier (Blood 1999, 94: 2725-2734). The coverslip constituted the bottom of the chamber and the actual chamber was formed by a 254-μm height silicon rubber gasket designed with a conically shaped flow path, thus resulting in a 3-fold increase of wall shear rate from the inlet of the chamber to the outlet. Calcein-AM labeled HL60 cells, suspended in RPMI (0.5×10^6/ml) were perfused at 37° C. and at a flow rate of 1 ml/min with an inverted syringe pump (Harvard Instruments, South Natick, Mass., U.S.A.). The flow chamber was mounted on the table platform of an inverted epifluorescence microscope (Diaphot; Nikon, Melville, N.Y., U.S.A.) coupled to a Cohu CCD video camera (COHU Inc, San Diego, Calif., U.S.A.) and HL60 cell translocation over CHO—P monolayers were measured at wall shear rates of 300 and 600 s-1. Gallic acid was added to HL60 cell suspensions 2 minutes before the onset of perfusion. To prevent oxidation, the gallic acid solution was prepared freshly. Real time movies of 12 seconds (10 images per second), recorded at predefined positions in the flow path corresponding to chosen wall shear rates were stored and digitised with a Scion LG3 frame grabber (Scion Corp, Frederick, Mich., U.S.A.). The average velocity of HL60 cells rolling over the CHO—P cells was calculated from the rolling distance of the HL60 cells in a 1 second timeframe, using the NIH Image program version 6.1. The number of adhered HL60 cells was counted from pictures taken during the same experiment.

For data set [4], the system named is leukocyte-platelet conjugates rolling over femoral vein endothelium. Nature of the data set: In vivo rolling/tumbling of leukocyte-platelet conjugates (rosettes) over femoral vein endothelium. More on the design: species or system mice. The method, then:
Human blood was collected on 1:6 acid-citrate-dextrose (ACD: 93 mM trisodium citrate, 7 mM citric acid, 140 mM dextrose, pH 6.5) and 1 μM tirofiban. Human platelet rich plasma (PRP) was prepared via centrifugation at 150 g for 15 min. Murine blood was collected on 20 μg/ml hirudin and was centrifuged at 800 g for 30 sec, immediately followed by a second centrifugation at 150 g for 5 min to prepare PRP. The isolated PRP (human or murine) was then mixed with two volumes of ACD and recentrifuged at 800 g for 5 min. Subsequently, washed platelets were resuspended in HEPES-Tyrode's buffer (5 mM HEPES, 137 mM NaCl, 2.7 mM KCl, 12 mM NaHCO3, 0.36 mM NaH2PO4, 1% (w/v) glucose, pH 7.3) containing 1% (v/v) human serum albumin (HAS) at 10^6 platelets/μl. They were then incubated for 20 min at 37° C. with 5 μM calcein-AM, an acetoxymethyl ester, fluorescent once cleaved by non-specific esterases inside the cell, with no detectable effect on platelet function in our perfusion studies. The platelet suspension was then centrifuged at 700 g for 25 min and fluorescent platelets were resuspended in HEPES-Tyrode's buffer, and murine platelets were injected as such in mice.
All animal experiments were reviewed and approved by the Institutional Review Board of the University of Leuven and were performed in compliance with the guidelines of the International Society on Thrombosis and Haemostasis (Giles AR). For the study of platelet-assisted leukocyte rolling over the endothelial surface of blood vessels in vivo, on-line video microscopy was performed in mice. […] mice (6-12 weeks old) were anesthetized with Nembutal (70 mg/kg) via i.p. injection, and the jugular vein was catheterized. The femoral vein was exposed and mice were positioned on the table of an inverted epifluorescent microscope, such that the blood circulation in the femoral vein could be visualized through a Cohu CCD video camera. Fluorescent-labeled murine platelets were then injected in the catheterized jugular vein (500×10^6 platelets in 200 μl) and baseline rolling was recorded for the labeled platelets. […] After 5 min, the collagen-induced rolling and tumbling of leukocyte-platelet conjugates was then recorded for 10 min. The number of rosettes rolling were counted and their average tumbling speed was calculated from the registered movies. To address the effect of gallic acid on rosette rolling, it was infused 5 min prior to collagen administration and the rosette rolling was analysed as in the controls. […] Tumbling rosettes were counted 10 min after the collagen injection, before and after gallic acid infusion of 0.75 to 7.5 mg/kg.h. […]

The test system of a further data set is platelets. Nature of the data set: TRAP-induced platelet aggregation in platelet-rich plasma. It counts as cell-based, human. The settings on record: for Maximal platelet aggregation: TRAP 6.5 μM, human PRP. The protocol:
Freshly drawn venous blood from healthy volunteers was collected with an informed consent into 1/10 volume of 3.2% tri-sodium citrate (w/v). These donors denied to have taken aspirin or other platelet function inhibitors during the previous ten days. Platelet-rich plasma (PRP) was prepared by centrifugation (150 g, 15 min, 22° C.). PRP was adjusted to a final concentration of 200,000 platelets/μl with platelet-poor plasma (PPP), which was obtained after an additional centrifugation step of the remaining blood (1100 g, 15 min, 22° C.). PRP was left for 30 min at 37° C. to ensure a resting state of the platelets. Afterwards, PRP was incubated for 5 min with different concentrations of gallic acid, EGCG or solvent at 37° C. Samples were transferred to an aggregometer (Kordia BV, Leiden, The Netherlands) to determine platelet aggregation at a stirring speed of 900 r.p.m. Platelet aggregation was initiated after preincubation with different concentrations of GA or EGCG (0, 50, 250 and 500 μM) by the addition of thrombin receptor activating peptide (TRAP, 6.5 μM, 37° C.).

T1 sequence (P16109 with tags, fused parts or gaps limits assumed): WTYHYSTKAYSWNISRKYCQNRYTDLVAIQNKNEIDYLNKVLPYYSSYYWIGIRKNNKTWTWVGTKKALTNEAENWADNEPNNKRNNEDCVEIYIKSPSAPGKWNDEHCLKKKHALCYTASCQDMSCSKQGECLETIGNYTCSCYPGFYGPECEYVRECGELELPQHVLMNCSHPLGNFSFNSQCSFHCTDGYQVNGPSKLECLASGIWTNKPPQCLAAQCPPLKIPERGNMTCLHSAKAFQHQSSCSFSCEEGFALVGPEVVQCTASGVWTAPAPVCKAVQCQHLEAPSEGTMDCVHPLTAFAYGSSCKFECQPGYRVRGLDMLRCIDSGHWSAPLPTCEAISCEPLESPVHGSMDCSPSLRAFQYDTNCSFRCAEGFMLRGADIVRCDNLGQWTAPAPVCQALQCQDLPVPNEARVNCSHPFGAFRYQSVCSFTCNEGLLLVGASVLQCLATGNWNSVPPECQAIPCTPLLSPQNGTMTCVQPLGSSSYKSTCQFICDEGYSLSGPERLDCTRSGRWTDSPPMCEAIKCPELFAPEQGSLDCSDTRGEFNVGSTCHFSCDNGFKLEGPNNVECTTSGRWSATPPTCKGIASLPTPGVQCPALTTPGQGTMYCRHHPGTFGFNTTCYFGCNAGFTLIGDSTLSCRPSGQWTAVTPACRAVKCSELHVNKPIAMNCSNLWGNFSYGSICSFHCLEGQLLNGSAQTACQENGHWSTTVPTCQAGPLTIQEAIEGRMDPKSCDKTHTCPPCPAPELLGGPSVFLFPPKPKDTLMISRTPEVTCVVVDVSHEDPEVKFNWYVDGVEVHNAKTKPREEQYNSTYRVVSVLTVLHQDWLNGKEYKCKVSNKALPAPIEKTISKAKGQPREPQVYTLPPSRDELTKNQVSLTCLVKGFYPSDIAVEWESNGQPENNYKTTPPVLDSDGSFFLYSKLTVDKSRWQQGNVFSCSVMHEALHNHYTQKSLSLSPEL
T2 sequence (P16581 with tags, fused parts or gaps limits assumed): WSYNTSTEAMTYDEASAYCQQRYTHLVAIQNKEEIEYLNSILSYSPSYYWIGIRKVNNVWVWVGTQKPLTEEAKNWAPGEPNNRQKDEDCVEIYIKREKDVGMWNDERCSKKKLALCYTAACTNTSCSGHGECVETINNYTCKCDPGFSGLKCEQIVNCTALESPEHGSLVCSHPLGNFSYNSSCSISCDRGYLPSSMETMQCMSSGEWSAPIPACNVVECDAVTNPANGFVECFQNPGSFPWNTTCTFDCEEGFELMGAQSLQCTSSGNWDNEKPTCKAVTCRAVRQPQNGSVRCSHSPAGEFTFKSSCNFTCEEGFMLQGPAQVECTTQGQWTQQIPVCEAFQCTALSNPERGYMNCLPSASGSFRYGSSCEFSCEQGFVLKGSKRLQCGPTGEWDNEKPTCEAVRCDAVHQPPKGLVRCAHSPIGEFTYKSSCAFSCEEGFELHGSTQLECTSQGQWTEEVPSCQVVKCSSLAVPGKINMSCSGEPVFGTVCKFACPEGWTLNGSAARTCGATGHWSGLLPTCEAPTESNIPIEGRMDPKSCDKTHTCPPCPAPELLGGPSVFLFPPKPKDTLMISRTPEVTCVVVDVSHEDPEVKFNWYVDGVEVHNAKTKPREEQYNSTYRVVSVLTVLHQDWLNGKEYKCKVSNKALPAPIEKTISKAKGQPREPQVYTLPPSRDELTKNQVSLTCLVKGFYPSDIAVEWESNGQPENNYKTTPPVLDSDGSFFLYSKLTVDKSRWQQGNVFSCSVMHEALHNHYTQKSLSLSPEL
T3 sequence (P14151 with tags, fused parts or gaps limits assumed): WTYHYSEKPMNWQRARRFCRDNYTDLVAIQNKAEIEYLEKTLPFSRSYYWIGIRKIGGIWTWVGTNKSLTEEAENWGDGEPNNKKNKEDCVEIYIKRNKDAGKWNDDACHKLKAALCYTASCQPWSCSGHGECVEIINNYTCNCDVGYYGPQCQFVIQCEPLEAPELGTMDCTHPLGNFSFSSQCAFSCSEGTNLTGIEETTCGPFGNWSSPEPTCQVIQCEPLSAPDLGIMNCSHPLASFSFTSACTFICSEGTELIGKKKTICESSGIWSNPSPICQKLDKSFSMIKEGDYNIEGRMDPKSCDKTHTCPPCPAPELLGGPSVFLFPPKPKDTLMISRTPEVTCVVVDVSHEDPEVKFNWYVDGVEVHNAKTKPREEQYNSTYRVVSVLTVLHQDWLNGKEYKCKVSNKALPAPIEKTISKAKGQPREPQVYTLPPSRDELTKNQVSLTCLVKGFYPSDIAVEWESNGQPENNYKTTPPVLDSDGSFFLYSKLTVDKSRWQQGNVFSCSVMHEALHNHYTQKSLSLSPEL

`O=C(O)c1ccc(O)cc1` [4-hydroxy benzoic acid]: the IC50 at human P-selectin [1] is over 300 µM.

With `O=C(O)/C=C/c1ccc(O)c(O)c1` [caffeic acid], the IC50 on human P-selectin [1] is over 300 µM.

Regarding `O=C(O)c1cc(O)c(O)c(O)c1` [gallic acid, 3,4,5-trihydroxybenzoic acid], the values for the IC50 at human P-selectin [2], at human P-selectin [1] and on human L-selectin were 7.2 µM, about 85 µM and 241 µM, respectively. The “Inhibition of E-selectin binding” value at human E-selectin was “less than 20%”. Besides, the “Binding to P-selectin, mouse versus human” value on mouse P-selectin is “species-independent”. Also, the “Change of HL60 cell adhesion to CHO-P monolayer vs untreated control” value in data set [3] (50 μM, wall shear rate 300 s^-1) is −34%; in data set [3] (50 μM, wall shear rate 600 s^-1), −43%; in data set [3] (250 μM, wall shear rate 300 s^-1), −41%; in data set [3] (250 μM, wall shear rate 600 s^-1), −54%. Besides, in data set [3] (50 and 250 μM), the “Rolling velocity of HL60 cells across CHO-P monolayer” value is reported as “doubled”. The “Conjugate rolling over femoral vein endothelium, number of conjugates rolling per unit of surface” value in data set [4] (C57/B16 mice (WT), FIG. 8A) is reported as “Dose-dependent inhibition”. For the same compound, the “Rolling of preformed leukocyte-platelet conjugates, percentage of rolling in absence of gallic acid” value in data set [4] (aged atherosclerotic ApoE-/- mice, FIG. 8B) was “Inhibition”. Also, in data set [4] (mice, at ED50 of rosette tumbling), the “Effective plasma concentration corresponding to ED50” value amounted to 40 µM. For the same compound, the “ED50, dose giving half maximal inhibition of rosette tumbling” value in data set [4] (mice, infusion 0.75 to 7.5 mg/kg.h, counted 10 min after collagen injection) is recorded as 1.5±0.4 mg/kg.h. In addition, the Maximal platelet aggregation result is “no significant inhibition” in the data set with platelets (250 μM) and “inhibit platelet aggregation significantly” in the data set with platelets (500 μM).

Regarding `CCCCCCCCCCCCOC(=O)c1cc(O)c(O)c(O)c1` [n-dodecyl gallate], the IC50 at human P-selectin [1] is over 300 µM. For the same compound, in the data set on platelets (human platelets, not usable in aggregation test), the Platelet lysis entry was “causes platelet lysis”.

For (−)-epigallocatechin gallate [EGCG], the IC50 on human P-selectin [1] amounted to 114 µM. Also, the Maximal platelet aggregation entry in the data set on platelets (250 μM) is “no significant inhibition”; in the data set on platelets (500 μM), “inhibit platelet aggregation significantly”.
